The values below are quoted from earlier work in US20060240450A1, “Genetic analysis for stratification of cancer risk” (priority 2001, published 2006).

Counter-ions that a name gives are not always drawn.

The subject of this data set is uterus and breast tissue. Particulars: preliminary clinical data (through 30 months).

As for `O=C(c1ccc(OCCN2CCCCC2)cc1)c1c(-c2ccc(O)cc2)sc2cc(O)ccc12` [Raloxifene HCl, methanone, [6-hydroxy-2-(4-hydroxyphenyl)benzo[b]thien-3-yl]-[4-[2-(1-piperidinyl)ethoxy]phenyl]-hydrochloride], the “estrogen-like effects on uterus and breast tissue” value was “lacks estrogen-like effects”.
